In US6737383B1, “Herbicidal oxadiazolidines” (priority 1999, dated 2004):

How the values were obtained:
[1] = tested on: wild oat; assay: Test B pre/postemergence wild oat; type: in vivo, Avena fatua
Outline: (§1)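 Herbicidal effect was estimated by eye on a ten-point control scale after plants spent twelve to sixteen days in a greenhouse following soil or foliar treatment. Foliar sprays targeted plants at one to four leaves; all doses were formulated in a non-phytotoxic solvent with surfactant.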

[2] = tested on: rape; assay: Test B pre/postemergence rape; type: in vivo, Brassica napus
Outline: as §1

[3] = tested on: wheat; assay: Test B pre/postemergence wheat; type: in vivo, Triticum aestivum
Outline: as §1

[4] = tested on: bedstraw; assay: Test B pre/postemergence bedstraw; type: in vivo, Galium aparine
Outline: as §1

[5] = tested on: purple nutsedge; assay: Test B pre/postemergence purple nutsedge; type: in vivo, Cyperus rotundus
Outline: as §1

[6] = tested on: sugar beet; assay: Test B pre/postemergence sugar beet; type: in vivo, Beta vulgaris
Outline: as §1

[7] = tested on: blackgrass; assay: Test B pre/postemergence blackgrass; type: in vivo, Alopecurus myosuroides
Outline: as §1

[8] = tested on: corn; assay: Test B pre/postemergence corn; type: in vivo, Zea mays
Outline: as §1

[9] = tested on: giant foxtail; assay: Test B pre/postemergence giant foxtail; type: in vivo, Setaria faberii
Outline: as §1

[10] = tested on: soybean; assay: Test B pre/postemergence soybean; type: in vivo, Glycine max
Outline: as §1

[11] = tested on: cocklebur; assay: Test B pre/postemergence cocklebur; type: in vivo, Xanthium strumarium
Outline: as §1

[12] = tested on: pigweed; assay: Test B pre/postemergence pigweed; type: in vivo, Amaranthus retroflexus
Outline: as §1

[13] = tested on: surinam grass; assay: Test B pre/postemergence surinam grass; type: in vivo, Brachiaria decumbens
Outline: as §1

[14] = tested on: crabgrass; assay: Test B pre/postemergence crabgrass; type: in vivo, Digitaria sanguinalis
Outline: as §1

[15] = tested on: velvetleaf; assay: Test B pre/postemergence velvetleaf; type: in vivo, Abutilon theophrasti
Outline: as §1

[16] = tested on: morningglory; assay: Test B pre/postemergence morningglory; type: in vivo, Ipomoea hederacea
Outline: as §1

[17] = Postemergence, Rate 62 g/ha, scale of 0 to 10, 0 is no effect, 10 is complete control
[18] = Postemergence, Rate 125 g/ha, scale 0 to 10, 0 is no effect, 10 is complete control
[19] = Postemergence, Rate 500 g/ha, scale 0 to 10, 0 is no effect, 10 is complete control
[20] = Preemergence, Rate 62 g/ha, scale 0 to 10 (0 no effect, 10 complete control)
[21] = Preemergence, Rate 125 g/ha, scale 0 to 10, 0 is no effect, 10 is complete control
[22] = Preemergence, Rate 500 g/ha, scale of 0 to 10 where 0 is no effect and 10 is complete control
[23] = Rate 250 g/ha, Postemergence, scale of 0 to 10 where 0 is no effect and 10 is complete control

SMILES: CC(C)=CCn1c(=O)on(C(=O)N(c2ccc(Cl)cc2)C(C)C)c1=O [Compound 545]
- Wild oats plant response rating [1, 17]: 0
- Wild oats plant response rating [1, 18]: 0
- Plant response rating, Wild oats [1, 19]: 0
- Wild oats plant response rating [1, 20]: 0
- Wild oats plant response rating [1, 21]: 0
- Wild oats plant response rating (0 to 10 scale) ([1]; Preemergence, Rate 250 g/ha): 2
- Wild oats plant response rating [1, 22]: 6
- Plant response rating, Wild oats [1, 23]: 0
- Rape plant response rating [2, 17]: 0
- Rape plant response rating [2, 18]: 0
- Plant response rating, Rape [2, 19]: 3
- Rape plant response rating [2, 20]: 0
- Rape plant response rating [2, 21]: 0
- Rape plant response rating (0 to 10 scale) ([2]; Preemergence, Rate 250 g/ha): 0
- Rape plant response rating [2, 22]: 2
- Plant response rating, Rape [2, 23]: 0
- Wheat plant response rating [3, 17]: 0
- Wheat plant response rating [3, 18]: 0
- Plant response rating, Wheat [3, 19]: 0
- Wheat plant response rating [3, 20]: 0
- Wheat plant response rating [3, 21]: 0
- Wheat plant response rating (0 to 10 scale) ([3]; Preemergence, Rate 250 g/ha): 0
- Wheat plant response rating [3, 22]: 2
- Plant response rating, Wheat [3, 23]: 0
- Bedstraw plant response rating [4, 17]: 0
- Bedstraw plant response rating [4, 18]: 0
- Plant response rating, Bedstraw [4, 19]: 7
- Bedstraw plant response rating [4, 20]: 0
- Bedstraw plant response rating [4, 21]: 0
- Bedstraw plant response rating (0 to 10 scale) ([4]; Preemergence, Rate 250 g/ha): 0
- Bedstraw plant response rating [4, 22]: 10
- Plant response rating, Bedstraw [4, 23]: 2
- Nutsedge plant response rating [5, 17]: 0
- Nutsedge plant response rating [5, 20]: 0
- Nutsedge plant response rating [5, 21]: 0
- Nutsedge plant response rating (0 to 10 scale) ([5]; Preemergence, Rate 250 g/ha): 0
- Nutsedge plant response rating [5, 22]: 0
- Sugarbeets plant response rating [6, 17]: 0
- Sugarbeets plant response rating [6, 18]: 0
- Plant response rating, Sugarbeets [6, 19]: 3
- Sugarbeets plant response rating [6, 20]: 0
- Sugarbeets plant response rating [6, 21]: 0
- Sugarbeets plant response rating (0 to 10 scale) ([6]; Preemergence, Rate 250 g/ha): 2
- Sugarbeets plant response rating [6, 22]: 6
- Plant response rating, Sugarbeets [6, 23]: 0
- Blackgrass plant response rating [7, 17]: 0
- Blackgrass plant response rating [7, 18]: 0
- Plant response rating, Blackgrass [7, 19]: 0
- Blackgrass plant response rating [7, 20]: 0
- Blackgrass plant response rating [7, 21]: 0
- Blackgrass plant response rating (0 to 10 scale) ([7]; Preemergence, Rate 250 g/ha): 2
- Blackgrass plant response rating [7, 22]: 9
- Plant response rating, Blackgrass [7, 23]: 0
- Corn plant response rating [8, 17]: 0
- Corn plant response rating [8, 18]: 0
- Plant response rating, Corn [8, 19]: 0
- Corn plant response rating [8, 20]: 0
- Corn plant response rating [8, 21]: 0
- Corn plant response rating (0 to 10 scale) ([8]; Preemergence, Rate 250 g/ha): 0
- Corn plant response rating [8, 22]: 0
- Plant response rating, Corn [8, 23]: 0
- Giant foxtail plant response rating [9, 17]: 0
- Giant foxtail plant response rating [9, 18]: 0
- Plant response rating, Giant foxtail [9, 19]: 5
- Giant foxtail plant response rating [9, 20]: 10
- Giant foxtail plant response rating [9, 21]: 10
- Giant foxtail plant response rating (0 to 10 scale) ([9]; Preemergence, Rate 250 g/ha): 10
- Giant foxtail plant response rating [9, 22]: 10
- Plant response rating, Giant foxtail [9, 23]: 3
- Soybean plant response rating [10, 17]: 1
- Soybean plant response rating [10, 18]: 1
- Plant response rating, Soybean [10, 19]: 2
- Soybean plant response rating [10, 20]: 0
- Soybean plant response rating [10, 21]: 0
- Soybean plant response rating (0 to 10 scale) ([10]; Preemergence, Rate 250 g/ha): 0
- Soybean plant response rating [10, 22]: 0
- Plant response rating, Soybean [10, 23]: 2
- Cocklebur plant response rating [11, 17]: 0
- Cocklebur plant response rating [11, 18]: 3
- Cocklebur plant response rating [11, 20]: 0
- Cocklebur plant response rating [11, 21]: 0
- Cocklebur plant response rating (0 to 10 scale) ([11]; Preemergence, Rate 250 g/ha): 0
- Cocklebur plant response rating [11, 22]: 0
- Plant response rating, Cocklebur [11, 23]: 8
- Redroot pigweed plant response rating [12, 17]: 0
- Redroot pigweed plant response rating [12, 18]: 0
- Plant response rating, Redroot pigweed [12, 19]: 0
- Redroot pigweed plant response rating [12, 20]: 3
- Redroot pigweed plant response rating [12, 21]: 8
- Redroot pigweed plant response rating (0 to 10 scale) ([12]; Preemergence, Rate 250 g/ha): 9
- Redroot pigweed plant response rating [12, 22]: 10
- Plant response rating, Redroot pigweed [12, 23]: 0
- B. signalgrass plant response rating [13, 17]: 0
- B. signalgrass plant response rating [13, 18]: 0
- Plant response rating, B. signalgrass [13, 19]: 2
- B. signalgrass plant response rating [13, 20]: 0
- B. signalgrass plant response rating [13, 21]: 0
- B. signalgrass plant response rating (0 to 10 scale, 0 is no effect, 10 is complete control) ([13]; Preemergence, Rate 250 g/ha): 0
- B. signalgrass plant response rating [13, 22]: 5
- Plant response rating, B. signalgrass [13, 23]: 2
- Crabgrass plant response rating [14, 17]: 0
- Crabgrass plant response rating [14, 18]: 2
- Plant response rating, Crabgrass [14, 19]: 9
- Crabgrass plant response rating [14, 20]: 8
- Crabgrass plant response rating [14, 21]: 10
- Crabgrass plant response rating (0 to 10 scale) ([14]; Preemergence, Rate 250 g/ha): 10
- Crabgrass plant response rating [14, 22]: 10
- Plant response rating, Crabgrass [14, 23]: 3
- Velvetleaf plant response rating [15, 17]: 0
- Velvetleaf plant response rating [15, 18]: 3
- Velvetleaf plant response rating [15, 20]: 0
- Velvetleaf plant response rating [15, 21]: 0
- Velvetleaf plant response rating (0 to 10 scale) ([15]; Preemergence, Rate 250 g/ha): 0
- Velvetleaf plant response rating [15, 22]: 0
- Plant response rating, Velvetleaf [15, 23]: 6
- Morningglory plant response rating [16, 17]: 4
- Morningglory plant response rating [16, 18]: 4
- Morningglory plant response rating [16, 20]: 0
- Morningglory plant response rating [16, 21]: 0
- Morningglory plant response rating (0 to 10 scale) ([16]; Preemergence, Rate 250 g/ha): 0
- Morningglory plant response rating [16, 22]: 8
- Plant response rating, Morningglory [16, 23]: 10
